In US20210017607A1, “Methods of Predicting Responsiveness to Cancer Therapies” (The University of Chicago, priority 2019, published 2021):

How the values were obtained:
Myc-CAP (STING^lo) cells [1] = assay: p-γH2AX foci (DNA DSBs) by confocal microscopy; assay type: cell-based, mouse
From the text: (§1) FIGS. 29A-29M. PARPi alone induces DNA DSBs, but not apoptosis even in combination with PI3Ki in Myc-CAP (STING^lo) cancer cells; PARPi/PI3Ki combination induces intracellular DNA DSBs and proportionate release of MV surface-associated DNA DSBs from B6-Myc (STINGhi) cancer cells without affecting cellular viability; PARPi/PI3K treatment activates tumor-cell extrinsic cGAS/STING pathway within TAMs in vivo via MV surface-associated DNA DSBs released from tumor cells. Myc-CAP cancer cells were treated with the indicated drugs singly or in combination for 36 hours. (29A) Cells were stained with anti-mouse specific p-γH2AX antibody and a fluorescently labeled secondary antibody for determination of DNA DSBs, which were quantified by confocal microscopy. (29B) Protein extracts from cells in 29A were analyzed for the indicated pharmacodynamic biomarkers by western blotting; (29C) Annexin V-PI staining was done to assess frequency of live cells (Annexin V^− PI^−) following drug treatment. (29D) Ultracentrifugation was utilized to purify microvesicles (MVs) from supernatants in treatment groups in (29A) and associated DNA DSBs was quantified by Nanodrop®. Independent experiments n=2. (29E) Ultracentrifugation was utilized to purify MVs from supernatants in indicated treatment groups in FIG. 17A, and associated DNA DSBs were quantified by Nanodrop®; n=2 independent experiments. […]

Myc-CAP (STING^lo) cells [2] = assay: Annexin V-PI viability assay; assay type: cell-based, mouse; conditions: rucaparib 500 nM, buparlisib 1 μM, singly and in combination
From the text: as §1

Nc1cc(C(F)(F)F)c(-c2cc(N3CCOCC3)nc(N3CCOCC3)n2)cn1 [buparlisib]
DNA damage on addition to rucaparib, relative to rucaparib alone (Myc-CAP (STING^lo) cells [1]): did not further increase DNA damage | viability of cells (Myc-CAP (STING^lo) cells [2]): no change in the viability

CNCc1ccc(-c2[nH]c3cc(F)cc4c3c2CCNC4=O)cc1 [rucaparib]
DNA DSBs (number of p-γH2AX foci) (Myc-CAP (STING^lo) cells [1]; 36 hours): increase in DNA DSBs | viability of cells (Myc-CAP (STING^lo) cells [2]): no change in the viability
